We go through 16 compounds from ChEMBL document CHEMBL3091327, “3',4'-Bis-difluoromethoxycinnamoylanthranilate (FT061): an orally-active antifibrotic agent that reduces albuminuria in a rat model of progressive diabetic nephropathy” (Bioorg Med Chem Lett, 2013).

Structures are written as SMILES. Active and inactive are the calls of the source. The calls are words filed in the database; no cut-off is given here.

A short description of data set [1]: Antifibrotic activity in rat renal mesangial cells assessed as inhibition of TGF-beta1-induced [3H]-proline incorporation into collagen at 10 uM treated 4 hrs before TGF-beta1 addition measured after 44 hrs by liquid scintillation counting. Format: functional, cell-based.
Data set [2] is described as follows: Antifibrotic activity in rat renal mesangial cells assessed as inhibition of TGF-beta1-induced [3H]-proline incorporation into collagen at 30 uM treated 4 hrs before TGF-beta1 addition measured after 44 hrs by liquid scintillation counting. Format: functional, cell-based.
Data set [3] in a line: (§1) Apparent half life in Sprague-Dawley rat at 20 mg/kg, po. Format: ADME, organism-based. More on the design: dose 20 mg/kg, route oral. Conditions: Sprague-Dawley, in vivo.
Data set [4] in a line: Drug level in Sprague-Dawley rat urine at 5 mg/kg, iv. Format: ADME, organism-based. Details: dose 5 mg/kg, route intravenous. To be noted: read-out: Drug uptake.
Data set [5] in a line: Plasma clearance in Sprague-Dawley rat at 5 mg/kg, iv. The class given is ADME, organism-based. More on the design: dose 5 mg/kg, route intravenous.
Data set [6] concerns Rattus norvegicus. Briefly: Reduction of albuminuria in (mRen-2)27 rat streptozotocin-induced diabetic nephropathy model assessed as reduction of albumin level in urine at 400 mg/kg, po qd for 8 weeks administered 8 weeks post-streptozotocin treatment by radioimmunoassay. Format: functional, organism-based. Details: dose 400 mg/kg.
A short description of data set [7]: (§2) Tmax in Sprague-Dawley rat at 20 mg/kg, po. The class given is ADME, organism-based. Details: dose 20 mg/kg, route oral. To be noted: Sprague-Dawley, in vivo.
Data set [8] in a line: Volume of distribution at steady state in Sprague-Dawley rat at 5 mg/kg, iv. The class given is ADME, organism-based. Details: dose 5 mg/kg, route intravenous. To be noted: in vivo, read-out: Vdss.
Data set [9] in a line: (§3) AUC (0 to infinity) in Sprague-Dawley rat at 20 mg/kg, po. To be noted: Sprague-Dawley, plasma. Format: ADME, organism-based, Plasma. Details: dose 20 mg/kg, route oral, time infinity.
Data set [10] is described as follows: Oral bioavailability in Sprague-Dawley rat at 20 mg/kg. Format: ADME, organism-based. Conditions: in vivo.
Data set [11] in a line: (§4) Cmax in Sprague-Dawley rat at 20 mg/kg, po. The class given is ADME, organism-based. Details: dose 20 mg/kg, route oral. Conditions: Sprague-Dawley, in vivo.
Data set [12] in a line: AUC (0 to infinity) in Sprague-Dawley rat at 5 mg/kg, iv. More on the design: time infinity, dose 5 mg/kg, route intravenous. To be noted: plasma. The class given is ADME, organism-based.
The nature of data set [13]: Apparent half life in Sprague-Dawley rat at 5 mg/kg, iv. Details: dose 5 mg/kg, route intravenous. Format: ADME, organism-based. To be noted: in vivo, read-out: t1/2(app) (converted).
The nature of data set [14]: Drug level in Sprague-Dawley rat urine at 20 mg/kg, po. Format: ADME, organism-based. More on the design: dose 20 mg/kg, route oral. Conditions: read-out: Drug uptake.
For data set [15], the system named is Rattus norvegicus. Briefly: Hepatotoxicity in Sprague-Dawley rat assessed as effect on serum ALT level at 50 to 1000 mg/kg, po bid for 2 weeks. Format: toxicity, organism-based. Details: dose 50-1000 mg/kg, route oral. Conditions: in vivo, 336 h.
The test system of data set [16] is Liver microsome. Description: Metabolic stability in human liver microsomes at 1 uM after 60 mins by LC/MS analysis in presence of NADPH. The class given is ADME. To be noted: 1 h.
For data set [17], the system named is Rattus norvegicus. The data set is described as §1. Format: ADME, organism-based. More on the design: dose 20 mg/kg, route oral. To be noted: in vivo.
For data set [18], the system named is Rattus norvegicus. Briefly: Renal toxicity in Sprague-Dawley rat assessed as effect on serum creatinine level at 50 to 1000 mg/kg, po bid for 2 weeks. The class given is organism-based. More on the design: dose 50-1000 mg/kg, route oral. Conditions: in vivo, 336 h.
In data set [19] the test system is Rattus norvegicus. The description is as §2. The class given is ADME, organism-based. More on the design: dose 20 mg/kg, route oral. Conditions: in vivo.
The subject of data set [20] is Rattus norvegicus. The description is as §3. The class given is ADME, organism-based, Plasma. Details: dose 20 mg/kg, route oral, time infinity. To be noted: in vivo.
Data set [21] deals with Rattus norvegicus. The description is as §4. Format: ADME, organism-based. Details: dose 20 mg/kg, route oral. Conditions: in vivo.
Data set [22] has as its system Rattus norvegicus. Description: Reduction of albuminuria in (mRen-2)27 rat streptozotocin-induced diabetic nephropathy model assessed as reduction of albumin level in urine at 200 mg/kg, po qd for 8 weeks administered 8 weeks post-streptozotocin treatment by radioimmunoassay. The class given is functional, organism-based. More on the design: dose 200 mg/kg.
Data set [23] deals with Rattus norvegicus. Briefly: Renal toxicity in Sprague-Dawley rat assessed as effect on serum urate level at 50 to 1000 mg/kg, po bid for 2 weeks. Format: organism-based. Details: dose 50-1000 mg/kg, route oral. To be noted: in vivo, 336 h.
Data set [24] has as its system Rattus norvegicus. Briefly: Hepatotoxicity in Sprague-Dawley rat assessed as effect on serum bilirubin level at 50 to 1000 mg/kg, po bid for 2 weeks. The class given is toxicity, organism-based. Details: dose 50-1000 mg/kg, route oral. To be noted: in vivo, 336 h.

In the case of `C#CCOc1cc(/C=C/C(=O)Nc2ccccc2C(=O)O)ccc1OC(F)F`, the inhibition in data set [1] turned out to be 73%; in data set [2], 100%.

`COc1ccc(/C=C/C(=O)Nc2ccccc2C(=O)O)cc1OC` [TRANILAST]: the half-life in [3] is 3.3 h; in [13], 3.1 h. The figures for the dose excreted in data set [4] and in data set [14] were 2.4% and 1.9%, respectively. The compound further yielded a clearance in data set [5] of 2 mL/min/kg. Also, the outcome in [6] was Active. Moreover, in data set [7], the Tmax was 1.75 h. Also, the results for the inhibition in [1] and in data set [2] were 15% and 40%, respectively. Further, the Vd in data set [8] stood at 0.3 L/kg. In addition, the results for the total exposure AUC(0-inf) in [9] and in data set [12] were 652 µM·h and 110 µM·h, respectively. Also, in data set [10], the bioavailability was 125%. Besides, the Cmax in [11] amounted to 118 µM.

Consider `O=C(O)c1ccccc1NC(=O)C1CC1c1ccc(OC(F)F)c(OC(F)F)c1` (centres undefined), for which the inhibition amounted to 70% in [1] and 90% in [2].

In the case of `O=C(/C=C/c1ccc(OC(F)(F)C(F)F)cc1)Nc1ccccc1C(=O)O`, the inhibition in [1] was found to be 84%.

With `COc1cc(/C=C/C(=O)Nc2ccccc2C(=O)O)cc(OC)c1OC(F)F`, the values for the inhibition in [1] and in data set [2] were 24% and 80%, respectively.

`O=C(/C=C/c1ccc2c(c1)OC(F)(F)O2)Nc1ccccc1C(=O)O`: the inhibition in data set [2] stood at 0%.

Turning to `O=S(=O)(/C=C/c1ccc(OC(F)F)c(OC(F)F)c1)Nc1ccccc1`, in data set [1], the inhibition turned out to be 0%.

For `C/C(=C\C(=O)Nc1ccccc1C(=O)O)c1ccc(OC(F)F)c(OC(F)F)c1`, the inhibition in [1] was 100%.

`C/C(=C\c1ccc(OC(F)F)c(OC(F)F)c1)C(=O)Nc1ccccc1C(=O)O`: the inhibition in data set [1] turned out to be 100%.

Regarding `Nc1ccccc1NC(=O)/C=C/c1ccc(OC(F)F)c(OC(F)F)c1`, the results for the inhibition in [1] and in [2] were 57% and 79%, respectively.

For `O=C(/C=C/c1ccc(OC(F)F)c(OC(F)F)c1)Nc1ccc(Br)cc1C(=O)O`, in data set [1], the inhibition came out at 100%.

Consider `COc1ccc(/C=C/C(=O)Nc2ccccc2C(=O)O)cc1OC(F)(F)F`, for which the inhibition in data set [1] came to 92%; in data set [2] it was 100%.

As for `C#CCOc1cc(/C=C/C(=O)Nc2ccccc2C(=O)O)ccc1OC`, the inhibition in data set [1] came to 20%; in data set [2] it was 55%.

In the case of `O=C(/C=C/c1ccc(OC(F)(F)F)c(F)c1)Nc1ccccc1C(=O)O`, in [1], the inhibition stood at 55%.

`COc1cc(/C=C/C(=O)Nc2ccccc2C(=O)O)ccc1OC(F)F`: the inhibition is 20% in [1] and 70% in data set [2].

Turning to `O=C(/C=C/c1ccc(OC(F)F)c(OC(F)F)c1)Nc1ccccc1C(=O)O`, the Activity entry in [15], in data set [18], in data set [23] and in data set [24] was “Non-toxic” each time. Besides, the Stability entry in [16] is listed as “Stable”. Also, the t1/2(app) in data set [17] stood at 5.4 h. The figures for the dose excreted in data set [4] and in data set [14] were 3.3% and 1.7%, respectively. For the same compound, the clearance in data set [5] worked out at 0.2 mL/min/kg. Further, in [19], the Tmax is 2.5 h. Moreover, the figures for the inhibition in [1] and in data set [2] were 60% and 100%, respectively. Besides, in data set [8], the Vd is 0.1 L/kg. Further, the AUC in data set [20] came to 2691 µM·h. Also, the bioavailability in data set [10] is 73%. The Cmax in [21] stood at 200 µM. The result in data set [22] was Active. Also, the AUC(0-inf) in [12] amounted to 894 µM·h. The half-life in data set [13] was 7.8 h.

By inhibition is commonly meant the share of the control response that was lost under treatment. The term clearance denotes the volume of plasma or blood freed of the substance per unit of time. High values mean a high capacity for elimination, low ones a low capacity for elimination. In general, Tmax refers to the time at which the peak concentration occurs. One may read the AUC(0-inf) as total exposure, with the tail of the curve extrapolated. Low readings indicate low exposure, high ones high exposure. For orientation: Cmax means the highest concentration seen after dosing. By AUC is commonly meant concentration integrated over time. Lower therefore signals less exposure.
